Measured values taken from patent US20230322722A1, “MODULATORS OF MYC FAMILY PROTO-ONCOGENE PROTEIN” (Nalo Therapeutics, priority 2020, published 2023).

Key:
MycN protein = target: T1, MycN protein (Homo sapiens, UniProt P04198); experiment: Degradation of MycN protein, Western blot, SKNBE2 cells (Example 160); assay type: cell-based; conditions: SKNBE2, 6 h
T1 construct: either 2×10^6 of L-363 (human leukemia cell line) or SKNBE2 (neuroblastoma cell line) cells; endogenous in cells; host or cells: SKNBE2 / SK-N-BE(2) neuroblastoma cells
T1 sequence (P04198 1-464): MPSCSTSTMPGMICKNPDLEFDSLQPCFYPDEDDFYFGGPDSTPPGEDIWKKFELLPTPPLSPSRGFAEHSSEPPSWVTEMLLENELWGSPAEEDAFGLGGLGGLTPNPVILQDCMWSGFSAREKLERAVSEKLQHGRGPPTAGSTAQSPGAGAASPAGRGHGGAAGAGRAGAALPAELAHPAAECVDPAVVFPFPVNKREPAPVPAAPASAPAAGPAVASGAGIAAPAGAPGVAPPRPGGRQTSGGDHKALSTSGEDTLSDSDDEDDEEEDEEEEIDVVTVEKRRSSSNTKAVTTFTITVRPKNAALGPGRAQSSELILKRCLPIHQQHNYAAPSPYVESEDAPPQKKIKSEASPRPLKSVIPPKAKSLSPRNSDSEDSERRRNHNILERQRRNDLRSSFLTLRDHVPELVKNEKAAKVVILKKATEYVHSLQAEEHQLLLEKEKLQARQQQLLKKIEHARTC
Procedure: (§1) In a T150 flask was plated either 2×10^6 of L-363 (human leukemia cell line) or SKNBE2 (neuroblastoma cell line) cells in a total of 30 mL containing Roswell Park Memorial Institute (RPMI) 1640 Medium (Thermo Fisher, Cat. #11875-085), 10% Fetal Bovine Serum (FBS, Thermo Fisher: Cat. #10437-028), 1% Penicillin/streptomycin (Thermo Fisher: Cat. #10378016), and 1% Amophotericin B (Thermo Fisher, Cat. #15290026). The cells were split every 72 hours by reseeding the L-363 or SKNBE2 cells, and the passage number was noted. It is noteworthy that cell cultures that were above 40 passages were not used, and most experiments were done with cells of less than 30 passages.
(§2) In a 6-well cell culture plate, a total of 3 mL of either 1×10^6 cells/mL of L-363 or SKNBE2 cells were seeded, resulting in a total of 3×10^6 cells per well. To each well containing 3 mL of either L-363 or SKNBE2 cell line was added 6 uL of MycN modulating compound (1 mM) and the resulting plate was shaken from left to right, and not swirled. After 6 hours, the cells were placed in a 15 mL falcon tube and spun at 500 Gs at 4° C. in a swinging bucket centrifuge. The medium was then carefully removed without disturbing the pellet. The pellet was then washed with 3 mLs of chilled phosphate buffered saline (PBS) and subjected to the spin cycle. PBS was then removed and the pellet was lysed in 200 uL of radioimmunoprecipitation (RIPA) lysis buffer (Thermo Fisher: Cat. #899000) that is supplemented with protease and phosphatase inhibitors (Thermo Fisher: Cat. #A32959). The cell lysate was then subjected to spinning in a centrifuge for 10 minutes at 13000 G at 4° C. The supernatant was then carefully transferred to a fresh eppendorf tube without disturbing the pellet (˜180 uL). The protein concentration of the cell lysate was then determined by using a bicinchoninic acid (BCA assay) according to manufacturer's protocol (Thermo Fisher: Cat. #23227).
(§3) Cell lysate, approximately 25 ug-30 ug, was loaded per well in a 4-20% polyacrylamide gel (Biorad. Cat. #5671094). After running the dye front off of the gel, the gel was transferred to a nitrocellulose membrane (Biorad: Cat. #1704159) using the transblot turbo system (Biorad: Cat. #1704150) according to manufacturer's protocol. After transferring for 30 minutes, the membrane was blocked with 5% BSA for 1 hour at room temperature. The BSA was then washed off and the primary antibody of choice (1:500) was added, and the membrane was incubated with the primary antibody at 4° C. for overnight. The next morning, the primary antibody was removed and the membrane was washed with 1×-TBST for 10 minutes and repeated three more times. Following the last wash, a secondary antibody (Molecular Devices. Cat. #R8209 or R8208) was added at 1:5000 dilution and incubated for 1 hour at room temperature. Following the incubation with the secondary antibody, the membrane was washed with 1×-TBST for 10 minutes and repeated three more times. Following the last wash, the membrane was washed with de-ionized water twice and dried for at least two hours. Once the membrane is completely dry, the Molecular Devices Spectra Max western system was used to observe the bands. The western image was saved and the band density was measured with ImageJ software.

MycC protein = target: T2, MycC protein (Homo sapiens, UniProt P01106); experiment: Degradation of MycC protein, Western blot, L-363 cells (Example 160); assay type: cell-based; conditions: 6 h
T2 construct: either 2×10^6 of L-363 (human leukemia cell line) or SKNBE2 (neuroblastoma cell line) cells; endogenous in cells; host or cells: L-363 / L363 human leukemia cells
T2 sequence (P01106 whole entry): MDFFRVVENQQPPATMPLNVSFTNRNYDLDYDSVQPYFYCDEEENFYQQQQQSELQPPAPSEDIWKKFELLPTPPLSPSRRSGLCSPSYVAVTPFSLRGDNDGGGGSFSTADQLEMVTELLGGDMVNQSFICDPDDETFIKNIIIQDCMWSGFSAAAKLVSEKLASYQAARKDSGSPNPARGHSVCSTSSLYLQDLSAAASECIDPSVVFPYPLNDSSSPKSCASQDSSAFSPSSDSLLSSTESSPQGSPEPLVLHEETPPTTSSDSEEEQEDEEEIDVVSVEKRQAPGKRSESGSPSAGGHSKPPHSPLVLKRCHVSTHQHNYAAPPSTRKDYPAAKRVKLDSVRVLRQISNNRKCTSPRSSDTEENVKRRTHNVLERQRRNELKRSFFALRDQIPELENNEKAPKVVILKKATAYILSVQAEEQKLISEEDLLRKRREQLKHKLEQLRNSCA
Procedure: as §1, §2, §3

Structure (SMILES) | inhibition at 2 µM (MycN protein) [%] | inhibition at 2 µM (MycC protein) [%]
CN(c1nccc(Nc2cc(C3CC3)[nH]n2)n1)[C@H]1CC[C@H](C(=O)NCC2Cc3ccccc3C2)CC1 [Compound 120, (1R,4R)-4-((4-((5-cyclopropyl-1H-pyrazol-3-yl)amino)pyrimidin-2-yl)(methyl)amino)-N-((2,3-dihydro-1H-inden-2-yl)methyl)cyclohexane-1-carboxamide] | 50 to 79 | 80 to 100
CN(c1nccc(Nc2cc(C3CC3)[nH]n2)n1)[C@H]1CC[C@H](NC(=O)N2CCc3cc(F)c(F)cc3C2)CC1 [Compound 13, N-((1R,4R)-4-((4-((5-cyclopropyl-1H-pyrazol-3-yl)amino)pyrimidin-2-yl)(methyl)amino)cyclohexyl)-6,7-difluoro-3,4-dihydroisoquinoline-2(1H)-carboxamide] | 50 to 79 | 80 to 100
CN(c1nccc(Nc2cc(C3CC3)[nH]n2)n1)[C@H]1CC[C@H](NC(=O)C2CCc3ccccc32)CC1 (stereo partly drawn) [Compound 112, N-((1R,4R)-4-((4-((5-cyclopropyl-1H-pyrazol-3-yl)amino)pyrimidin-2-yl)(methyl)amino)cyclohexyl)-2,3-dihydro-1H-indene-1-carboxamide] | 50 to 79 | 80 to 100
CN(c1nccc(Nc2cc(C3CC3)[nH]n2)n1)[C@H]1CC[C@H](NC(=O)c2nc3ccccn3n2)CC1 [Compound 142, N-((1R,4R)-4-((4-((5-cyclopropyl-1H-pyrazol-3-yl)amino)pyrimidin-2-yl)(methyl)amino)cyclohexyl)-[1,2,4]triazolo[1,5-a]pyridine-2-carboxamide] | 80 to 100 | 80 to 100
CN(c1nccc(Nc2cc(C3CC3)[nH]n2)n1)[C@H]1CC[C@H](NS(=O)(=O)Cc2cccc(S(C)(=O)=O)c2)CC1 [Compound 157, N-((1R,4R)-4-((4-((5-cyclopropyl-1H-pyrazol-3-yl)amino)pyrimidin-2-yl)(methyl)amino)cyclohexyl)-1-(3-(methylsulfonyl)phenyl)methanesulfonamide] | 50 to 79 | 80 to 100
CN(c1nccc(Nc2cc(C3CC3)[nH]n2)n1)[C@H]1CC[C@H](NC(=O)C2(C)CCOCC2)CC1 [Compound 116, N-((1R,4R)-4-((4-((5-cyclopropyl-1H-pyrazol-3-yl)amino)pyrimidin-2-yl)(methyl)amino)cyclohexyl)-4-methyltetrahydro-2H-pyran-4-carboxamide] | < 20 | 80 to 100
CN(c1nccc(Nc2cn(C3CCCC3)cn2)n1)[C@H]1CC[C@H](NC(=O)C2Cc3ccccc3C2)CC1 [Compound 130, N-((1R,4R)-4-((4-((1-cyclopentyl-1H-imidazol-4-yl)amino)pyrimidin-2-yl)(methyl)amino)cyclohexyl)-2,3-dihydro-1H-indene-2-carboxamide] | < 20 | 50 to 79
CN(c1nccc(Nc2cc(C3CC3)[nH]n2)n1)C1CCN(CC(=O)Nc2cccc(S(C)(=O)=O)c2)CC1 [Compound 3, 2-(4-((4-((5-cyclopropyl-1H-pyrazol-3-yl)amino)pyrimidin-2-yl)(methyl)amino)piperidin-1-yl)-N-(3-(methylsulfonyl)phenyl)acetamide] | 50 to 79 | 80 to 100
CN(c1nccc(Oc2cc(C3CCCC3)[nH]n2)n1)C1CCC(NC(=O)Cc2cccc(C(F)(F)F)c2)CC1 [Compound 131, N-((1R,4R)-4-((4-((5-cyclopentyl-1H-pyrazol-3-yl)oxy)pyrimidin-2-yl)(methyl)amino)cyclohexyl)-2-(3-(trifluoromethyl)phenyl)acetamide] | 20 to 49 | < 20
CN(c1nccc(Nc2cc(C3CC3)[nH]n2)n1)[C@H]1CC[C@H](NS(=O)(=O)c2cccc(C#N)c2)CC1 [Compound 154, 3-cyano-N-((1R,4R)-4-((4-((5-cyclopropyl-1H-pyrazol-3-yl)amino)pyrimidin-2-yl)(methyl)amino)cyclohexyl)benzenesulfonamide] | 50 to 79 | 80 to 100
